Patent US12371454B2, “Cyclic peptide compound having Kras inhibitory action” (priority 2019, dated 2025)
Positions of bridges follow the written chain, without caps; N, C: chain ends. Non-standard residues stand in square brackets, D forms with d. Residues, ends and D or L forms follow the SMILES beside them. *: point of attachment. hPhe(3,5-F2-4-CF3) = N[C@@H](CCc1cc(F)c(C(F)(F)F)c(F)c1)C(=O)O; hPhe(3-Cl-4-CF3) = N[C@@H](CCc1ccc(C(F)(F)F)c(Cl)c1)C(=O)O; hPhe(3-F,4-CF3) = N[C@@H](CCc1ccc(C(F)(F)F)c(F)c1)C(=O)O; 3Oxa8azabicyclo(3.2.1)octane = C1CC2COCC1N2*; NMeAbu(4,4,4-F3) = CN[C@@H](CC(F)(F)F)C(=O)O; NMePhe(4-Me) = CN[C@@H](Cc1ccc(C)cc1)C(=O)O; NMeGly(cPent) = CN[C@H](C(=O)O)C1CCCC1; NMeCha = CN[C@@H](CC1CCCCC1)C(=O)O; NEtLeu = CCN[C@@H](CC(C)C)C(=O)O; NMeChg = CN[C@H](C(=O)O)C1CCCCC1; NMeD = CN[C@@H](CC(=O)O)C(=O)O; NMeL = CN[C@@H](CC(C)C)C(=O)O; NMeNva = CCC[C@H](NC)C(=O)O; NMeV = CN[C@H](C(=O)O)C(C)C; Morpholide = C1CN(*)CCO1; NMeA = CN[C@@H](C)C(=O)O; Piperidide = C1CCN(*)CC1; Pyrrolidide = C1CCN(*)C1; Ac5c = NC1(C(=O)O)CCCC1; Aze = O=C(O)[C@@H]1CCN1; X1 = FC1(F)CN(*)CC1(F)F; NEtG = CCNCC(=O)O; Sar = CNCC(=O)O

Experiments:
[1] = test system: Human pancreatic cancer cell line AsPC-1; test: Measurement of AsPC-1 cell growth inhibition (AsPC-1 CGI); format: cell-based; conditions: 96 h
Procedure, shortened: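 AsPC-1 cells in 15% FBS RPMI-1640 were exposed to test compound for 96 hours at 37° C, with CellTiter-Glo as endpoint.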

[2] = biological target: T1, Kras and SOS1 (biotin-tagged human Kras loaded with GDP, His-tagged human SOS1) (Homo sapiens, UniProt P01116, G12D); test: Protein-protein interaction inhibition between Kras and SOS1 (KrasGl2D-SOS PPI) using AlphaScreen; format: binding; conditions: AlphaScreen; biotin-tagged human Kras loaded with GDP, His-tagged human SOS1; read-out: KRAS G12D-SOS PPI IC50
T1 construct: made in house; host or cells: E. coli (stated for Kras only)
T1 sequence (P01116 1-188 isoform P01116-2 G12D): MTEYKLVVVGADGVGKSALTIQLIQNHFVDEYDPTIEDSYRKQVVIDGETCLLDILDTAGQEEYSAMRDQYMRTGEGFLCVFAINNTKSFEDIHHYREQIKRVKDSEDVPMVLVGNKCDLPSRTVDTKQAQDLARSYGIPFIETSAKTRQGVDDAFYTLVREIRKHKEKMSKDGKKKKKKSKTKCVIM
Procedure, shortened: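 Energy transfer from nickel-chelate donor beads bound to His-SOS1 to streptavidin acceptor beads bound to biotin-Kras, expressed in E. coli and loaded with GDP after purification, was monitored. Donors were excited at 680 nm; singlet oxygen reaching acceptors gave emission read at 520-620 nm.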

SMILES	IC50 [1] [nM]	IC50 [2] [nM]
CC[C@H](C)[C@@H]1NC(=O)[C@H](CC(C)C)N(CC)C(=O)C[C@@H](C(=O)N2CCOCC2)N(C)C(=O)[C@H](C2CCCCC2)N(C)C(=O)C2(CCCC2)NC(=O)[C@@H]2CCCN2C(=O)[C@H](CCc2ccc(C(F)(F)F)c(Cl)c2)NC(=O)CN(C)C(=O)[C@H](CC2CCCCC2)N(C)C(=O)CN(C)C(=O)CN(C)C1=O [Compound 1189] ([NEtLeu]I[Sar][Sar][NMeCha][Sar][hPhe(3-Cl-4-CF3)]P[Ac5c][NMeChg][NMeD]-Morpholide; lactam N-11)	50 to 100	0.74
CCC[C@H]1C(=O)N[C@@H]([C@@H](C)CC)C(=O)N(C)CC(=O)N(C)CC(=O)N(C)[C@@H](Cc2ccc(C)cc2)C(=O)N(C)CC(=O)N[C@@H](CCc2cc(F)c(C(F)(F)F)c(F)c2)C(=O)N2CCC[C@H]2C(=O)NC2(CCCC2)C(=O)N(C)[C@@H](C2CCCCC2)C(=O)N(C)[C@H](C(=O)N2CCCC2)CC(=O)N1C [Compound 1197] ([NMeNva]I[Sar][Sar][NMePhe(4-Me)][Sar][hPhe(3,5-F2-4-CF3)]P[Ac5c][NMeChg][NMeD]-Pyrrolidide; lactam N-11)	20 to 50	0.6
CC[C@H](C)[C@@H]1NC(=O)[C@H](CC(C)C)N(C)C(=O)C[C@@H](C(=O)N2CCCCC2)N(C)C(=O)[C@H](C2CCCCC2)N(C)C(=O)C2(CCCC2)NC(=O)[C@@H]2CCCN2C(=O)[C@H](CCc2ccc(C(F)(F)F)c(Cl)c2)NC(=O)CN(CC)C(=O)[C@H](CC2CCCCC2)N(C)C(=O)CN(C)C(=O)CN(C)C1=O [Compound 1203] ([NMeL]I[Sar][Sar][NMeCha][NEtG][hPhe(3-Cl-4-CF3)]P[Ac5c][NMeChg][NMeD]-Piperidide; lactam N-11)	100 to 500	2.1
CC[C@H](C)[C@@H]1NC(=O)[C@H](CC(C)C)N(C)C(=O)C[C@@H](C(=O)N2CC(F)(F)C(F)(F)C2)N(C)C(=O)[C@H](C2CCCCC2)N(C)C(=O)C2(CCCC2)NC(=O)[C@@H]2CCCN2C(=O)[C@H](CCc2ccc(C(F)(F)F)c(Cl)c2)NC(=O)CN(C)C(=O)[C@H](CC2CCCCC2)N(C)C(=O)CN(C)C(=O)CN(C)C1=O [Compound 1207] ([NMeL]I[Sar][Sar][NMeCha][Sar][hPhe(3-Cl-4-CF3)]P[Ac5c][NMeChg][NMeD]-X1; lactam N-11)	100 to 500	2.7
CC[C@H](C)[C@@H]1NC(=O)[C@H](CC(C)C)N(C)C(=O)C[C@@H](C(=O)N2CCCCC2)N(C)C(=O)[C@H](C2CCCCC2)N(C)C(=O)C2(CCCC2)NC(=O)[C@@H]2CCCN2C(=O)[C@H](CCc2ccc(C(F)(F)F)c(Cl)c2)NC(=O)CN(C)C(=O)[C@H](CC2CCCCC2)N(C)C(=O)CN(CC)C(=O)CN(C)C1=O [Compound 1227] ([NMeL]I[Sar][NEtG][NMeCha][Sar][hPhe(3-Cl-4-CF3)]P[Ac5c][NMeChg][NMeD]-Piperidide; lactam N-11)	100 to 500	1.3
CC[C@H](C)[C@@H]1NC(=O)[C@H](CC(F)(F)F)N(C)C(=O)C[C@@H](C(=O)N2CCCC2)N(C)C(=O)[C@H](C2CCCCC2)N(C)C(=O)C2(CCCC2)NC(=O)[C@@H]2CCCN2C(=O)[C@H](CCc2cc(F)c(C(F)(F)F)c(F)c2)NC(=O)CN(C)C(=O)[C@H](CC2CCCCC2)N(C)C(=O)CN(C)C(=O)CN(C)C1=O [Compound 1228] ([NMeAbu(4,4,4-F3)]I[Sar][Sar][NMeCha][Sar][hPhe(3,5-F2-4-CF3)]P[Ac5c][NMeChg][NMeD]-Pyrrolidide; lactam N-11)	20 to 50	0.59
CC[C@H](C)[C@@H]1NC(=O)[C@H](CC(C)C)N(C)C(=O)C[C@@H](C(=O)N2C3CCC2COC3)N(C)C(=O)[C@H](C(C)C)N(C)C(=O)C2(CCCC2)NC(=O)[C@@H]2CCCN2C(=O)[C@H](CCc2ccc(C(F)(F)F)c(Cl)c2)NC(=O)CN(C)C(=O)[C@H](CC2CCCCC2)N(C)C(=O)[C@@H]2CCN2C(=O)[C@H](C)N(C)C1=O [Compound 1235] ([NMeL]I[NMeA][Aze][NMeCha][Sar][hPhe(3-Cl-4-CF3)]P[Ac5c][NMeV][NMeD]-{3Oxa8azabicyclo(3.2.1)octane}; lactam N-11)	100 to 500	5.5
CC[C@H](C)[C@@H]1NC(=O)[C@H](CC(C)C)N(CC)C(=O)C[C@@H](C(=O)N(C)C)N(C)C(=O)[C@H](C2CCCC2)N(C)C(=O)C2(CCCC2)NC(=O)[C@@H]2CCCN2C(=O)[C@H](CCc2ccc(C(F)(F)F)c(F)c2)NC(=O)CN(C)C(=O)[C@H](CC2CCCCC2)N(C)C(=O)[C@@H]2CCN2C(=O)[C@H](C)NC1=O [Compound 1252] ([NEtLeu]IA[Aze][NMeCha][Sar][hPhe(3-F,4-CF3)]P[Ac5c][NMeGly(cPent)][NMeD]-NMe2; lactam N-11)	100 to 500	2.5
CCC[C@H]1C(=O)N[C@@H]([C@@H](C)CC)C(=O)N(C)CC(=O)N(C)CC(=O)N(C)[C@@H](CC2CCCCC2)C(=O)N(C)CC(=O)N[C@@H](CCc2cc(F)c(C(F)(F)F)c(F)c2)C(=O)N2CCC[C@H]2C(=O)NC2(CCCC2)C(=O)N(C)[C@@H](C2CCCCC2)C(=O)N(C)[C@H](C(=O)N2CCCC2)CC(=O)N1C [Compound 1253] ([NMeNva]I[Sar][Sar][NMeCha][Sar][hPhe(3,5-F2-4-CF3)]P[Ac5c][NMeChg][NMeD]-Pyrrolidide; lactam N-11)	20 to 50	0.81
